IC50 data for 1 compound are collected here from BindingDB's records for doi:10.1021/acs.jmedchem.9b00575 (Glaxosmithkline, 2019).

SMILES strings stand for the structures.

For the test, the target named is Nucleotide-binding oligomerization domain-containing protein 2 (Homo sapiens, UniProt Q9HC29). The test is described as follows: Inhibition of NOD2 in human monocytes assessed as reduction in MDP-induced TNFalpha production preincubated for 30 mins followed by MDP-stimulation and measured after 6 hrs by immunoassay.
Chain of Nucleotide-binding oligomerization domain-containing protein 2 (Q9HC29 whole entry, the tested form may be a part): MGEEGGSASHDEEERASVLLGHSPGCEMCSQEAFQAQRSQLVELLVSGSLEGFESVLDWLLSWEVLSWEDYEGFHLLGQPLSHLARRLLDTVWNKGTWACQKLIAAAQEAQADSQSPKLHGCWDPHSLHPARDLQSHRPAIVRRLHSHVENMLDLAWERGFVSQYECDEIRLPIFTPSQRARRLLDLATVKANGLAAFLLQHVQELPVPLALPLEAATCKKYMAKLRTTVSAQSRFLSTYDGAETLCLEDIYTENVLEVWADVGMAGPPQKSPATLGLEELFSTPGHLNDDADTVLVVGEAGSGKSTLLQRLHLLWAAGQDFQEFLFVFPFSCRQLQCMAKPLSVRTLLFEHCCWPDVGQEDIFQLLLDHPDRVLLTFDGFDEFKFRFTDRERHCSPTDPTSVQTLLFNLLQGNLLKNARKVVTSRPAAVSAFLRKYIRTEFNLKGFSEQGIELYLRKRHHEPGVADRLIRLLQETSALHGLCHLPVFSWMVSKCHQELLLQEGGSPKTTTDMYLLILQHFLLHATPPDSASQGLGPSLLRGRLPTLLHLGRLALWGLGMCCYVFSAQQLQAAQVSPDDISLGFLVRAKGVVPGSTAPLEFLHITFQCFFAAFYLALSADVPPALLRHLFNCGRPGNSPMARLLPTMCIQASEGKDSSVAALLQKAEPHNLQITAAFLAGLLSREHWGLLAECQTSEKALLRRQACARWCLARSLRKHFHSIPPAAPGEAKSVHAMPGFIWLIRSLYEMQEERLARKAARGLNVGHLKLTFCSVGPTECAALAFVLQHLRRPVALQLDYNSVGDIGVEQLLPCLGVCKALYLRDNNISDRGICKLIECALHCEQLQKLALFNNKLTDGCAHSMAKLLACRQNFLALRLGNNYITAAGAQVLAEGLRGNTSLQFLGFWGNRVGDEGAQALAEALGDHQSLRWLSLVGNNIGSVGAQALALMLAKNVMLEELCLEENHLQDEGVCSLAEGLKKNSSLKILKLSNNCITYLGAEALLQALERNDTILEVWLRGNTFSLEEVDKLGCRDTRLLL

For orientation: IC50 means the concentration that gives 50% inhibition. On to `CC(C)(C)S(=O)(=O)c1cc2c(Nc3ccc4scnc4c3)ncnc2cc1OCCO`, for which the IC50 amounted to 13 nM.
